{"source": "patent US4220755A", "about": "“Fortimicin B derivatives and process for production thereof” (Abbott Laboratories, priority 1976, dated 1980)", "key": {"Providencia sp 164": {"system": "Providencia sp 164", "experiment": "MIC, agar dilution method, pH 7.2", "type": "cell-based", "conditions": "pH 7.2; Providencia sp 164; 7**: gentamicin, producing acetyltransferase type II; read-out: Minimum inhibition concentration (MIC)", "description": "(§1) Measurement was carried out according to the agar dilution method, using a medium of pH 8.0, or the Japanese Antibiotic Medicament Standard, using a medium of pH 7.2 Units are in mcg/ml.\n7: gentamicin, producing acetyltransferase type II."}, "[1]": {"system": "Escherichia coli R19 KY8348", "experiment": "MIC, agar dilution method, pH 7.2", "type": "cell-based", "conditions": "R19KY8348, pH 7.2, E. coli R19 KY8348, 4**: gentamicin, producing acetyltransferase type I, read-out: Minimum inhibition concentration (MIC)", "description": "as §1\n(§2) 4: gentamicin, producing acetyltransferase type I."}, "[2]": {"system": "Pseudomonas aeruginosa R4 KY8511", "experiment": "MIC, agar dilution method, pH 7.2", "type": "cell-based", "conditions": "R4KY8511, pH 7.2, P. aeruginosa R4 KY8511, 4**: gentamicin, producing acetyltransferase type I, read-out: Minimum inhibition concentration (MIC)", "description": "as §1, §2"}, "[3]": {"system": "Escherichia coli R20 KY8349", "experiment": "MIC, agar dilution method, pH 7.2", "type": "cell-based", "conditions": "R20KY8349, pH 7.2, E. coli R20 KY8349, 5**: neomycin, producing phosphotransferase type I, read-out: Minimum inhibition concentration (MIC)", "description": "as §1\n5: neomycin, producing phosphotransferase type I."}, "Bacillus subtilis KY4273": {"system": "Bacillus subtilis KY4273", "experiment": "MIC, agar dilution method, pH 8.0", "type": "cell-based", "conditions": "pH 8.0; Bacillus subtilis KY4273; read-out: Minimum inhibition concentration (MIC), BS", "description": "as §1\nB.S.: Bacillus subtilis KY4273"}, "Escherichia coli 76-2": {"system": "Escherichia coli 76-2", "experiment": "MIC, agar dilution method, pH 7.2", "type": "cell-based", "conditions": "Escherichia coli, 762; pH 7.2; E. coli 76-2; 1**: gentamicin, producing adenylsynthetase; read-out: Minimum inhibition concentration (MIC)", "description": "as §1\n(§3) **1: gentamicin, producing adenylsynthetase."}, "[4]": {"system": "Klebsiella pneumoniae 3020 Y-60", "experiment": "MIC, agar dilution method, pH 7.2", "type": "cell-based", "conditions": "3020Y60; pH 7.2; Klebsiella pneumoniae 3020 Y-60; 1**: gentamicin, producing adenylsynthetase; read-out: Minimum inhibition concentration (MIC)", "description": "as §1, §3"}, "[5]": {"system": "Escherichia coli 57R/W677", "experiment": "MIC, agar dilution method, pH 7.2", "type": "cell-based", "conditions": "57R/W677, pH 7.2, read-out: Minimum inhibition concentration (MIC)", "description": "as §1, §3"}, "[6]": {"system": "Escherichia coli R12 Z-338", "experiment": "MIC, agar dilution method, pH 7.2", "type": "cell-based", "conditions": "R12Z338, pH 7.2, E. coli R12 Z-338, 1**: gentamicin, producing adenylsynthetase, read-out: Minimum inhibition concentration (MIC)", "description": "as §1, §3"}, "[7]": {"system": "Klebsiella pneumoniae KY4275 ATCC10031", "experiment": "MIC, agar dilution method, pH 8.0", "type": "cell-based", "conditions": "ATCC10031; pH 8.0; Klebsiella pneumoniae KY4275; read-out: Minimum inhibition concentration (MIC), KP", "description": "as §1\nK.P.: Klebsiella pneumoniae KY4275 ATCC10031."}, "[8]": {"system": "Shigella sonnei KY4281 ATCC9290", "experiment": "MIC, agar dilution method, pH 8.0", "type": "cell-based", "conditions": "ATCC9290; pH 8.0; Shigella sonnei KY4281; read-out: Minimum inhibition concentration (MIC), SS", "description": "as §1"}, "[9]": {"system": "Proteus vulgaris KY4277 ATCC6897", "experiment": "MIC, agar dilution method, pH 8.0", "type": "cell-based", "conditions": "ATCC6897; pH 8.0; Proteus vulgaris KY4277; read-out: Minimum inhibition concentration (MIC), PV", "description": "as §1"}, "[10]": {"system": "Staphylococcus aureus KY4279 ATCC6538P", "experiment": "MIC, agar dilution method, pH 8.0", "type": "cell-based", "conditions": "Staphylococcus aureus, pH 8, read-out: Minimum inhibition concentration (MIC), SA", "description": "as §1\nS.A.: Staphylococcus aureus KY4279 ATCC6538P"}, "[11]": {"system": "Eschericia coli KY4271 ATCC26", "experiment": "MIC, agar dilution method, pH 8.0", "type": "cell-based", "conditions": "Escherichia coli, ATCC26, pH 8, read-out: Minimum inhibition concentration (MIC), EC", "description": "as §1\nE.C.: Eschericia coli KY4271 ATCC26"}, "[12]": {"system": "Salmonella typhosa KY4278 ATCC9992", "experiment": "MIC, agar dilution method, pH 8.0", "type": "cell-based", "conditions": "Salmonella enterica, pH 8, read-out: Minimum inhibition concentration (MIC), ST", "description": "as §1\nS.T.: Salmonella typhosa KY4278 ATCC9992"}, "[13]": {"system": "Pseudomonas aeruginosa R5 KY8512", "experiment": "MIC, agar dilution method, pH 7.2", "type": "cell-based", "conditions": "R5KY8512, pH 7.2, P. aeruginosa R5 KY8512, 6**: neomycin, producing phosphotransferase type I and type II, read-out: Minimum inhibition concentration (MIC)", "description": "as §1\n6: neomycin, producing phosphotransferase type I and type II."}, "[14]": {"system": "Escherichia coli R18 KY8321", "experiment": "MIC, agar dilution method, pH 7.2", "type": "cell-based", "conditions": "R18KY8321, E. coli R18 KY8321, 2**: gentamicin, producing adenylsynthetase and neomycin phosphotransferase type II, read-out: Minimum inhibition concentration (MIC)", "description": "as §1\n2: gentamicin, producing adenylsynthetase and neomycin phosphotransferase"}, "[15]": {"system": "Staphylococcus a ureus 226", "experiment": "MIC, agar dilution method, pH 7.2", "type": "cell-based, Staphylococcus aureus", "conditions": "pH 7.2; Staphylococcus aureus 226; read-out: Minimum inhibition concentration (MIC)", "description": "as §1"}, "Eschericihia coli 3100": {"system": "Eschericihia coli 3100", "experiment": "MIC, agar dilution method, pH 7.2", "type": "cell-based, Escherichia coli", "conditions": "Escherichia coli; pH 7.2; E. coli 3100; read-out: Minimum inhibition concentration (MIC)", "description": "as §1"}, "[16]": {"system": "Klebsiella pneumoniae KY4274", "experiment": "MIC, agar dilution method, pH 7.2", "type": "cell-based", "conditions": "pH 7.2; Klebsiella pneumoniae KY4274; read-out: Minimum inhibition concentration (MIC)", "description": "as §1"}, "Proteus vulgaris JJ": {"system": "Proteus vulgaris JJ", "experiment": "MIC, agar dilution method, pH 7.2", "type": "cell-based", "conditions": "pH 7.2; Proteus vulgaris JJ; read-out: Minimum inhibition concentration (MIC)", "description": "as §1"}, "[17]": {"system": "Eschericihia coli GN2411-5", "experiment": "MIC, agar dilution method, pH 7.2", "type": "cell-based", "conditions": "Escherichia coli; pH 7.2; E. coli GN2411-5; read-out: Minimum inhibition concentration (MIC)", "description": "as §1"}, "[18]": {"system": "Salmonella enteritidis G-14", "experiment": "MIC, agar dilution method, pH 7.2", "type": "cell-based", "conditions": "Salmonella enterica; pH 7.2; Salmonella enteritidis G-14; read-out: Minimum inhibition concentration (MIC)", "description": "as §1"}, "[19]": {"system": "Pseudomonas aeruginosa BMH# 1", "experiment": "MIC, agar dilution method, pH 7.2", "type": "cell-based", "conditions": "pH 7.2; Pseudomonas aeruginosa BMH# 1; read-out: Minimum inhibition concentration (MIC)", "description": "as §1"}, "[20]": {"system": "Staphylococcus aureus Smith (A)", "experiment": "MIC, agar dilution method, pH 7.2", "type": "cell-based", "conditions": "pH 7.2; Staphylococcus aureus Smith (A); read-out: Minimum inhibition concentration (MIC)", "description": "as §1"}, "[21]": {"system": "Pseudomonas aeruginosa UCLA 4184", "experiment": "MIC, agar dilution method, pH 7.2", "type": "cell-based", "conditions": "UCLA4184; pH 7.2; Pseudomonas aeruginosa UCLA 4184; read-out: Minimum inhibition concentration (MIC)", "description": "as §1"}, "[22]": {"system": "Staphylococcus aureus 209-P", "experiment": "MIC, agar dilution method, pH 7.2", "type": "cell-based", "conditions": "pH 7.2; Staphylococcus aureus 209-P; read-out: Minimum inhibition concentration (MIC)", "description": "as §1"}, "Escherichia coli NIHTC-2": {"system": "Escherichia coli NIHTC-2", "experiment": "MIC, agar dilution method, pH 7.2", "type": "cell-based", "conditions": "NIHTC2; pH 7.2; Escherichia coli NIHTC-2; read-out: Minimum inhibition concentration (MIC)", "description": "as §1"}, "Shigella sonnei ATCC9290": {"system": "Shigella sonnei ATCC9290", "experiment": "MIC, agar dilution method, pH 7.2", "type": "cell-based", "conditions": "read-out: Minimum inhibition concentration (MIC)", "description": "as §1"}, "Serratia marcescens 1065": {"system": "Serratia marcescens 1065", "experiment": "MIC, agar dilution method, pH 7.2", "type": "cell-based", "conditions": "pH 7.2; Serratia marcescens 1065; 3**: kanamycin, producing acetyltransferase; read-out: Minimum inhibition concentration (MIC)", "description": "as §1\n(§4) 3: kanamycin, producing acetyltransferase."}, "[23]": {"system": "Escherichia coli R17 Z343", "experiment": "MIC, agar dilution method, pH 7.2", "type": "cell-based", "conditions": "R17Z343, pH 7.2, E. coli R17 Z343, 3**: kanamycin, producing acetyltransferase, read-out: Minimum inhibition concentration (MIC)", "description": "as §1, §4"}, "[24]": {"system": "Pseudomonas aeruginosa R9 KY8516", "experiment": "MIC, agar dilution method, pH 7.2", "type": "cell-based", "conditions": "R9KY8516, pH 7.2, P. aeruginosa R9 KY8516, 3**: kanamycin, producing acetyltransferase, read-out: Minimum inhibition concentration (MIC)", "description": "as §1, §4"}}, "data": [{"smiles": "CO[C@H]1[C@@H](O)[C@H](N)[C@@H](O[C@H]2O[C@H]([C@H](C)N)CC[C@H]2N)[C@H](O)[C@@H]1N(C)C(=O)CO", "note": "[Compound 4, 4-N-glycolylfortimicin B]", "values": [{"measurement": "MIC", "setting": "Providencia sp 164", "result": 100, "unit": "µg/mL"}, {"measurement": "MIC", "setting": "[1]", "result": "> 100", "unit": "µg/mL"}, {"measurement": "MIC", "setting": "[2]", "result": "> 100", "unit": "µg/mL"}, {"measurement": "MIC", "setting": "[3]", "result": 12.5, "unit": "µg/mL"}, {"measurement": "MIC", "setting": "Bacillus subtilis KY4273", "result": 5, "unit": "µg/mL"}, {"measurement": "MIC", "setting": "Escherichia coli 76-2", "result": 6.25, "unit": "µg/mL"}, {"measurement": "MIC", "setting": "[4]", "result": "> 100", "unit": "µg/mL"}, {"measurement": "MIC", "setting": "[5]", "result": 25, "unit": "µg/mL"}, {"measurement": "MIC", "setting": "[6]", "result": 25, "unit": "µg/mL"}, {"measurement": "MIC", "setting": "[7]", "result": 5, "unit": "µg/mL"}, {"measurement": "MIC", "setting": "[8]", "result": 5, "unit": "µg/mL"}, {"measurement": "MIC", "setting": "[9]", "result": 2.5, "unit": "µg/mL"}, {"measurement": "MIC", "setting": "[10]", "result": 1.25, "unit": "µg/mL"}, {"measurement": "MIC", "setting": "[11]", "result": 1.25, "unit": "µg/mL"}, {"measurement": "MIC", "setting": "[12]", "result": 1.25, "unit": "µg/mL"}, {"measurement": "MIC", "setting": "[13]", "result": 50, "unit": "µg/mL"}, {"measurement": "MIC", "setting": "[14]", "result": 6.25, "unit": "µg/mL"}, {"measurement": "MIC", "setting": "[15]", "result": 12.5, "unit": "µg/mL"}, {"measurement": "MIC", "setting": "Eschericihia coli 3100", "result": 12.5, "unit": "µg/mL"}, {"measurement": "MIC", "setting": "[16]", "result": 25, "unit": "µg/mL"}, {"measurement": "MIC", "setting": "Proteus vulgaris JJ", "result": 25, "unit": "µg/mL"}, {"measurement": "MIC", "setting": "[17]", "result": 12.5, "unit": "µg/mL"}, {"measurement": "MIC", "setting": "[18]", "result": 25, "unit": "µg/mL"}, {"measurement": "MIC", "setting": "[19]", "result": 50, "unit": "µg/mL"}, {"measurement": "MIC", "setting": "[20]", "result": 3.12, "unit": "µg/mL"}, {"measurement": "MIC", "setting": "[21]", "result": 100, "unit": "µg/mL"}, {"measurement": "MIC", "setting": "[22]", "result": 3.12, "unit": "µg/mL"}, {"measurement": "MIC", "setting": "Escherichia coli NIHTC-2", "result": 12.5, "unit": "µg/mL"}, {"measurement": "MIC", "setting": "Shigella sonnei ATCC9290", "result": 25, "unit": "µg/mL"}, {"measurement": "MIC", "setting": "Serratia marcescens 1065", "result": 50, "unit": "µg/mL"}, {"measurement": "MIC", "setting": "[23]", "result": 6.25, "unit": "µg/mL"}, {"measurement": "MIC", "setting": "[24]", "result": 100, "unit": "µg/mL"}]}]}
